# System: serum metabolites (tryptophan, tyrosine, purine pathways, antioxidants)
# Experiment: LCECA metabolomic profiling of serum: change from baseline at week 1 and week 4 (all, responders, non-responders)
# Format: in vivo, human
# Details: serum; for Change 5-HT / Change 5-HTP / Change 5-MTPOL / Change 7-MXAN / Change ATOCO / Change CYS / Change DIOHMAL / Change DOPAC / Change DTOCO / Change GR / Change GRMP / Change GSH / Change HGA / Change HVA / Change HX / Change KYN / Change LD / Change MEL / Change METH / Change MHPG / Change NA-5-HT / Change TRP / Change TRPOL / Change TYR / Change UA / Change VMA / Change XAN / Change XANTH / Change 3-OHKY / Change 3-OMD / Change 4-HBAC / Change 4-HPAC / Change 4-HPLA / Change 5-HIAA: log-transformed concentration; for Change in ratio 3-OHKY/5-HT, Estimate / Change in ratio 3-OHKY/5-HTP, Estimate / Change in ratio 3-OHKY/5-MTPOL, Estimate / Change in ratio 3-OHKY/MEL, Estimate / Change in ratio 3-OHKY/NA-5-HT, Estimate / Change in ratio 3-OHKY/TRP, Estimate / Change in ratio KYN/5-HT, Estimate / Change in ratio KYN/5-HTP, Estimate / Change in ratio KYN/5-MTPOL, Estimate / Change in ratio KYN/MEL, Estimate / Change in ratio KYN/NA-5-HT, Estimate / Change in ratio KYN/TRP, Estimate: pre- to post-treatment (four weeks)
# Source text: Study participants were outpatients, 18–65 years of age, from various clinical sites across the United States. […] A complete description of the inclusion and exclusion used in this study can be found in Table S1. The study protocol was developed in accordance with the principles of the Declaration of Helsinki. All patients provided written informed consent. The study was sponsored and monitored by Pfizer, Inc. Each site's institutional review board approved and oversaw the study. The primary outcome measure was the HAMD17, used to assess depressive symptom severity. Measures were gathered at baseline, and weeks 1 and 4 of treatment at the patient's visits. Serum samples were collected using standard protocol at baseline, week 1 and week 4 of treatment at the clinic visits. Whole blood was collected in serum collection tubes and inverted 5–8 times. Serum samples were allowed to clot at room temperature for 60 minutes and then centrifuged at 1,300×g for 15 minutes. Following centrifugation supernatant was frozen at −80°C until analysis.
# Samples were analyzed using a liquid chromatography electrochemical array (LCECA) platform that has been extensively validated and used in our prior studies in neurodegenerative and psychiatric disorders [30]–[34]. The method includes multiple compounds from the tyrosine, tryptophan, sulfur amino acids and purine pathways, and markers of oxidative stress and protection (for the list of metabolites and abbreviations see Table 1). Levels of 5-Methoxytryptamine (5-MTPM) were measured using a gas chromatography time-of-flight-mass spectrometry (GCTOF-MS) platform. Samples were prepared for analysis as previously described. During the sample preparation, pools were created from equal volumes of subaliquots of all samples. Concentrations of metabolites in the individual samples were expressed as a percentage of the concentration of those metabolites in the averaged pool.
# Data preprocessing: We first removed the metabolites that have more than 40% missing values. […] Principal components analysis (PCA; SIMCA-P+12.0) was used to identify outliers. The analysis was performed for each time point. […] Subjects with ≥3 standard deviations away from the center of data cloud within two principal components (PC's) scores scatter plot were considered outliers and were removed from further analysis.
# These analyses were conducted separately for the sertraline and placebo groups. Between groups t-tests were used to compare baseline to one week and baseline to four week change scores between the sertraline and placebo groups.
# Signatures of response to sertraline and placebo were identified by using paired t-tests to compare week 4 metabolite levels to baseline metabolite levels in the responders and non-responders to therapy. […] These analyses were also performed to evaluate changes in ratios of individual metabolites within (e.g., 5-HT/5-HTP) and between branches of tryptophan pathway (e.g., KYN/MEL).
# [1] = after four weeks, sertraline group
# [2] = after one week, responders to sertraline
# [3] = after one week, sertraline group
smiles,measurement,setting,value
"CN[C@H]1CC[C@@H](c2ccc(Cl)c(Cl)c2)c2ccccc21 [Sertraline, sertraline]",Change 5-HT,[1],−1.9
same,Change 5-HTP,[1],0.12
same,Change 5-MTPOL,[1],0.13
same,Change 7-MXAN,[1],0.083
same,Change ATOCO,[1],0.63
same,Change CYS,[1],−0.0014
same,Change DIOHMAL,[1],0.37
same,Change DOPAC,[1],−0.014
same,Change DTOCO,[1],0.71
same,Change GR,[1],0.0002
same,Change GRMP,[1],0.052
same,Change GSH,[1],0.014
same,Change HGA,[1],0.4
same,Change HVA,[1],0.1
same,Change HX,[1],−0.0057
same,Change KYN,[1],0.045
same,Change LD,[1],0.12
same,Change MEL,[1],0.49
same,Change METH,[1],0.2
same,Change MHPG,[1],−0.21
same,Change NA-5-HT,[1],0.041
same,Change TRP,[1],0.07
same,Change TRPOL,[1],0.061
same,Change TYR,[1],0.13
same,Change UA,[1],−0.058
same,Change VMA,[1],−0.015
same,Change XAN,[1],−0.16
same,Change XANTH,[1],0.047
same,Change 3-OHKY,[2],-0.02
same,Change 3-OMD,[2],-0.18
same,Change 4-HBAC,[2],0.49
same,Change 4-HPAC,[2],0.47
same,Change 4-HPLA,[2],0.18
same,Change 5-HIAA,[2],-0.14
same,Change 5-HT,[2],-0.79
same,Change 5-HTP,[2],-0.06
same,Change 5-MTPOL,[2],0.15
same,Change 7-MXAN,[2],-0.51
same,Change ATOCO,[2],0.4
same,Change CYS,[2],0.0024
same,Change DIOHMAL,[2],0.2
same,Change DOPAC,[2],-0.048
same,Change DTOCO,[2],0.75
same,Change GR,[2],0.17
same,Change GRMP,[2],-0.0083
same,Change GSH,[2],-0.02
same,Change HGA,[2],0.19
same,Change HVA,[2],0.13
same,Change HX,[2],-0.075
same,Change KYN,[2],0.052
same,Change LD,[2],0.13
same,Change MEL,[2],0.41
same,Change METH,[2],0.0032
same,Change MHPG,[2],-0.33
same,Change NA-5-HT,[2],-0.022
same,Change TRP,[2],0.044
same,Change TRPOL,[2],0.082
same,Change TYR,[2],-0.027
same,Change UA,[2],-0.048
same,Change VMA,[2],0.1
same,Change XAN,[2],-0.21
same,Change XANTH,[2],0.033
same,Change 3-OHKY,[3],−0.074
same,Change 3-OMD,[3],−0.12
same,Change 4-HBAC,[3],−0.085
same,Change 4-HPAC,[3],0.29
same,Change 4-HPLA,[3],0.1
same,Change 5-HIAA,[3],−0.17
same,Change 5-HT,[3],−0.75
same,Change 5-HTP,[3],−0.11
same,Change 5-MTPOL,[3],0.041
same,Change 7-MXAN,[3],−0.099
same,Change ATOCO,[3],0.21
same,Change CYS,[3],−0.034
same,Change DIOHMAL,[3],0.18
same,Change DOPAC,[3],−0.13
same,Change DTOCO,[3],0.3
same,Change GR,[3],−0.23
same,Change GRMP,[3],−0.011
same,Change GSH,[3],−0.013
same,Change HGA,[3],0.28
same,Change HVA,[3],0.053
same,Change HX,[3],−0.07
same,Change KYN,[3],−0.045
same,Change LD,[3],0.081
same,Change MEL,[3],0.34
same,Change METH,[3],0.097
same,Change MHPG,[3],−0.17
same,Change NA-5-HT,[3],0.0079
same,Change TRP,[3],0.0036
same,Change TRPOL,[3],0.033
same,Change TYR,[3],0.083
same,Change UA,[3],−0.077
same,Change VMA,[3],0.11
same,Change XAN,[3],−0.19
same,Change XANTH,[3],0.082
same,"Change in ratio 3-OHKY/5-HT, Estimate",Nonresponder to sertraline,0.69
same,"Change in ratio 3-OHKY/5-HTP, Estimate",Nonresponder to sertraline,−0.099
same,"Change in ratio 3-OHKY/5-MTPOL, Estimate",Nonresponder to sertraline,−0.035
same,"Change in ratio 3-OHKY/MEL, Estimate",Nonresponder to sertraline,−0.11
same,"Change in ratio 3-OHKY/NA-5-HT, Estimate",Nonresponder to sertraline,0.0038
same,"Change in ratio 3-OHKY/TRP, Estimate",Nonresponder to sertraline,−0.04
same,"Change in ratio KYN/5-HT, Estimate",Nonresponder to sertraline,0.72
same,"Change in ratio KYN/5-HTP, Estimate",Nonresponder to sertraline,−0.076
same,"Change in ratio KYN/5-MTPOL, Estimate",Nonresponder to sertraline,−0.012
same,"Change in ratio KYN/MEL, Estimate",Nonresponder to sertraline,−0.085
same,"Change in ratio KYN/NA-5-HT, Estimate",Nonresponder to sertraline,0.027
same,"Change in ratio KYN/TRP, Estimate",Nonresponder to sertraline,−0.017
same,"Change in ratio 3-OHKY/5-HT, Estimate",Responder to sertraline,0.97
same,"Change in ratio 3-OHKY/5-HTP, Estimate",Responder to sertraline,0.025
same,"Change in ratio 3-OHKY/5-MTPOL, Estimate",Responder to sertraline,−0.043
same,"Change in ratio 3-OHKY/MEL, Estimate",Responder to sertraline,−0.27
same,"Change in ratio 3-OHKY/NA-5-HT, Estimate",Responder to sertraline,−0.00032
same,"Change in ratio 3-OHKY/TRP, Estimate",Responder to sertraline,0.013
same,"Change in ratio KYN/5-HT, Estimate",Responder to sertraline,0.95
same,"Change in ratio KYN/5-HTP, Estimate",Responder to sertraline,0.0057
same,"Change in ratio KYN/5-MTPOL, Estimate",Responder to sertraline,−0.062
same,"Change in ratio KYN/MEL, Estimate",Responder to sertraline,−0.28
same,"Change in ratio KYN/NA-5-HT, Estimate",Responder to sertraline,−0.019
same,"Change in ratio KYN/TRP, Estimate",Responder to sertraline,−0.006
